Our source for the Emax values is patent publication US8716284B2, “Adamantyl diamide derivatives and uses of same” (H. Lundbeck A/S, priority 2008, dated 2014).

This assay deals with T1, rat metabotropic glutamate receptor 5 (mGluR5) (Rattus norvegicus, UniProt P31424).
T1 construct: expressed in transfected cells; host or cells: HEK 293
T1 sequence (P31424 21-1171 isoform P31424-2 limits assumed): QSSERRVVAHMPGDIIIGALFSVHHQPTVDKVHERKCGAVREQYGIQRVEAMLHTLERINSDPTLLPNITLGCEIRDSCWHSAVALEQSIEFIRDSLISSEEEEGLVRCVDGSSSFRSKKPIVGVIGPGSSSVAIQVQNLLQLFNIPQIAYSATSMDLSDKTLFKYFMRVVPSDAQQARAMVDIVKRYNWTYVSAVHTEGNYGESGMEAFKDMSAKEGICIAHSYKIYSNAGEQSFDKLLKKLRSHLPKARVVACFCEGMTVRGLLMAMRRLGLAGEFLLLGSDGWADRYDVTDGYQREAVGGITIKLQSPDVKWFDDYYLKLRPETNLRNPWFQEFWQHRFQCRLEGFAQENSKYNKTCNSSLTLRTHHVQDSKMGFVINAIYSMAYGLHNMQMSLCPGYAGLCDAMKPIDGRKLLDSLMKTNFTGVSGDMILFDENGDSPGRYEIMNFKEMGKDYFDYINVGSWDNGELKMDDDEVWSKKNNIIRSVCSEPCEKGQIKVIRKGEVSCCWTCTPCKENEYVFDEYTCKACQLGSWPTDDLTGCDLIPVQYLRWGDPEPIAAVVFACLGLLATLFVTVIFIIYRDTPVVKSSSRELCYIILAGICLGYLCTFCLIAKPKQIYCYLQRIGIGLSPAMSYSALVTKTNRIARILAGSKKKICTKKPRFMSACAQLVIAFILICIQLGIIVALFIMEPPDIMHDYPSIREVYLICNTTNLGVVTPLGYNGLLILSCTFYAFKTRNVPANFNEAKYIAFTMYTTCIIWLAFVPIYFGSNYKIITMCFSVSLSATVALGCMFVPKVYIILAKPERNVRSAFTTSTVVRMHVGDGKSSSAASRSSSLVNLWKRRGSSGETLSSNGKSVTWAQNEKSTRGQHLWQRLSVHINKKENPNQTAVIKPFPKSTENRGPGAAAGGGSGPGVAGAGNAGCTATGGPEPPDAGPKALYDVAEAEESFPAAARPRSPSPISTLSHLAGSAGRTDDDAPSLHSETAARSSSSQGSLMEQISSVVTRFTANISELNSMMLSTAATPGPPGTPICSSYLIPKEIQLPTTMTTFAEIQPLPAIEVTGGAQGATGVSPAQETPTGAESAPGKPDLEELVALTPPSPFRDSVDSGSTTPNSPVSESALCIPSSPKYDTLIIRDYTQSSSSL
The assay can be described thus: Calcium mobilization assay (FLIPR) for negative or positive allosteric activity, HEK 293 cells. The format is cell-based. To be noted: HEK293, negative allosteric modulation, inhibition of EC80 glutamate response; read-out: FLIPR maximum inhibition. As for the experimental part:
The cDNA for rat metabotropic glutamate receptor 5 (mGluR5) was a generous gift from S. Nakanishi (Kyoto University, Kyoto, Japan). The mGluR5 was stably expressed in a HEK 293 cell line and grown in Dulbecco's Modified Eagle Medium (DMEM) (Invitrogen, Carlsbad, Calif.) with supplements (10% bovine calf serum, 4 mM glutamine, 100 units/mL penicillin, 100 μg/mL streptomycin and 0.75 mM G1418) at 37° C., 5% CO2. Twenty-four hours prior to assay, cells were seeded into 384-well black wall microtiter plates coated with poly-D-lysine. Just prior to assay, media was aspirated and cells dye-loaded (25 μL/well) with 3 μM Fluo-4/0.01% pluronic acid in assay buffer (Hank's Balanced Saline Solution (HBSS)): 150 mM NaCl, 5 mM KCl, 1 mM CaCl2, 1 mM MgCl2, plus 20 mM N-2-Hydroxyethylpiperazine-N′-2-ethanesulfonic acid (HEPES), pH 7.4, 0.1% bovine serum albumin (BSA) and 2.5 mM probenicid) for 1 hour in 5% CO2 at 37° C. After excess dye was discarded, cells were washed in assay buffer and layered with a final volume equal to 30 μL/well. Basal fluorescence is monitored in a fluorometric imaging plate reader (FLIPR) (Molecular Devices, Sunnyvale, Calif.) with an excitation wavelength of 488 nm and an emission range of 500 to 560 nm. Laser excitation energy was adjusted so that basal fluorescence readings were approximately 10,000 relative fluorescent units. Cells were stimulated with an EC20 or an EC80 concentration of glutamate in the presence of a compound to be tested, both diluted in assay buffer, and relative fluorescent units were measured at defined intervals (exposure=0.6 sec) over a 3 min period at room temperature. Basal readings derived from negative controls were subtracted from all samples. Maximum change in fluorescence was calculated for each well. Concentration-response curves derived from the maximum change in fluorescence were analyzed by nonlinear regression (Hill equation). A negative modulator can be identified from these concentration-response curves if a compound produces a concentration dependent inhibition of the EC80 glutamate response. […] Examples 11-163 also were tested in the above assay.
A positive modulator can be identified from these concentration-response curves if a compound produces a concentration dependent increase in the EC20 glutamate response.
On the technique in general: A change in cytosolic calcium serves as a functional read-out for many receptors and channels.
For `Cc1cccc(C(=O)NC23CC4CC(C2)CC(NC(=O)c2cccc(N(C)CCN(C)C)n2)(C4)C3)n1` [Example 204, 6-[(2-Dimethylamino-ethyl)-methyl-amino]-pyridine-2-carboxylic acid{3-[(6-methyl-pyridine-2-carbonyl)-amino]-adamantan-1-yl}-amide], the Emax is 63 to 99%.

For `Cc1cccc(C(=O)NC23CC4CC(C2)CC(NC(=O)c2nccc(C)n2)(C4)C3)n1` [Example 141, 4-Methyl-pyrimidine-2-carboxylic acid {3-[(6-methyl-pyridine-2-carbonyl)-amino]-adamantan-1-yl}-amide], the Emax fell in the range of 70 to 99%.

As for `Cc1cccc(C(=O)NC23CC4CC(C2)CC(NC(=O)c2cc(C)n(C)n2)(C4)C3)n1` [Example 127, 6-Methyl-pyridine-2-carboxylic acid {3-[(1,5-dimethyl-1H-pyrazole-3-carbonyl)-amino]-adamantan-1-yl}-amide], the Emax fell in the range of 70 to 99%.

With `COc1cccc(C(=O)NC23CC4CC(CC(NC(=O)c5cncc(C)n5)(C4)C2)C3)n1` [Example 151, 6-Methyl-pyrazine-2-carboxylic acid {3-[(6-methoxy-pyridine-2-carbonyl)-amino]-adamantan-1-yl}-amide], the Emax lay within 70 to 99%.

With `Cc1cccc2nc(C(=O)NC34CC5CC(CC(NC(=O)c6cccc(F)c6)(C5)C3)C4)cn12` [Example 103, 5-Methyl-imidazo[1,2-a]pyridine-2-carboxylic acid [3-(3-fluoro-benzoylamino)-adamantan-1-yl]-amide], the Emax is 63 to 99%.

Consider `Cc1cncc(C(=O)NC23CC4CC(CC(NC(=O)c5ccnc(F)c5)(C4)C2)C3)n1` [Example 160, 6-Methyl-pyrazine-2-carboxylic acid {3-[(2-fluoro-pyridine-4-carbonyl)-amino]-adamantan-1-yl}-amide], for which the Emax was 70 to 99%.

For `Cc1cccc(C(=O)NC23CC4CC(C2)CC(NC(=O)c2cccc(CO)n2)(C4)C3)n1` [Example 134, 6-Methyl-pyridine-2-carboxylic acid {3-[(6-hydroxymethylpyridine-2-carbonyl)-amino]-adamantan-1-yl}-amide], the Emax is 70 to 99%.

With `Cc1cncc(C(=O)NC23CC4CC(C2)CC(NC(=O)c2ncccn2)(C4)C3)n1` [Example 172, Pyrimidine-2-carboxylic acid {3-[(6-methyl-pyrazine-2-carbonyl)-amino]-adamantan-1-yl}-amide], the Emax was in the range of 63 to 99%.

In the case of `O=C(NC12CC3CC(C1)CC(NC(=O)c1cccc(NCCCO)n1)(C3)C2)c1cccc(F)c1` [Example 214, 6-(3-Hydroxy-propylamino)-pyridine-2-carboxylic acid [3-(3-fluoro-benzoylamino)-adamantan-1-yl]-amide], the Emax lay within 63 to 99%.

Take `COc1cccc(C(=O)NC23CC4CC(C2)CC(NC(=O)c2cncc(C)n2)(C4)C3)c1` [Example 146, 6-Methyl-pyrazine-2-carboxylic acid [3-(3-methoxy-benzoylamino)-adamantan-1-yl]-amide]: the Emax was in the range of 70 to 99%.

For `Cc1cccc(C(=O)NC23CC4CC(CC(NC(=O)c5cccnn5)(C4)C2)C3)n1` [Example 24, Pyridazine-3-carboxylic acid {3-[(6-methyl-pyridine-2-carbonyl)-amino]-adamantan-1-yl}-amide], the Emax was in the range of 63 to 99%.

In the case of `O=C(NC12CC3CC(C1)CC(NC(=O)c1cnccn1)(C3)C2)c1ccnc(Br)c1` [Example 186, Pyrazine-2-carboxylic acid {3-[(2-bromo-pyridine-4-carbonyl)-amino]-adamantan-1-yl}-amide], the Emax lay in the range of 63 to 99%.

`Cc1ccc2nc(C(=O)NC34CC5CC(CC(NC(=O)c6ccccn6)(C5)C3)C4)cn2c1` [Example 90, 6-Methyl-imidazo[1,2-a]pyridine-2-carboxylic acid {3-[(pyridine-2-carbonyl)-amino]-adamantan-1-yl}-amide]: the Emax is 63 to 99%.
